Drawing on PubChem BioAssay AID623879 (Vanderbilt Specialized Chemistry Center, 2012), this text covers fold shift and max response for one compound.

Calls of active or inactive are those of the source.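 Rule for the calls: active = fold shift at least 2 as potentiator or at most 0.5 as antagonist, actives on both sides; inactive = fold shift between 0.5 and 2.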

The target of this assay is Metabotropic glutamate receptor 3 (Rattus norvegicus) (UniProt P31422). The assay can be described thus: glutamate response shift at mGlu3 – cell-based, rat, GIRK thallium flux, selectivity assay for mGlu4 PAM optimization project, SAR follow-up (AID 623879). The settings on record: rat mGlu3 cells, glutamate CRC shift, at 10 µM.
Chain of Metabotropic glutamate receptor 3 (Rattus norvegicus) (P31422 whole entry, looked up): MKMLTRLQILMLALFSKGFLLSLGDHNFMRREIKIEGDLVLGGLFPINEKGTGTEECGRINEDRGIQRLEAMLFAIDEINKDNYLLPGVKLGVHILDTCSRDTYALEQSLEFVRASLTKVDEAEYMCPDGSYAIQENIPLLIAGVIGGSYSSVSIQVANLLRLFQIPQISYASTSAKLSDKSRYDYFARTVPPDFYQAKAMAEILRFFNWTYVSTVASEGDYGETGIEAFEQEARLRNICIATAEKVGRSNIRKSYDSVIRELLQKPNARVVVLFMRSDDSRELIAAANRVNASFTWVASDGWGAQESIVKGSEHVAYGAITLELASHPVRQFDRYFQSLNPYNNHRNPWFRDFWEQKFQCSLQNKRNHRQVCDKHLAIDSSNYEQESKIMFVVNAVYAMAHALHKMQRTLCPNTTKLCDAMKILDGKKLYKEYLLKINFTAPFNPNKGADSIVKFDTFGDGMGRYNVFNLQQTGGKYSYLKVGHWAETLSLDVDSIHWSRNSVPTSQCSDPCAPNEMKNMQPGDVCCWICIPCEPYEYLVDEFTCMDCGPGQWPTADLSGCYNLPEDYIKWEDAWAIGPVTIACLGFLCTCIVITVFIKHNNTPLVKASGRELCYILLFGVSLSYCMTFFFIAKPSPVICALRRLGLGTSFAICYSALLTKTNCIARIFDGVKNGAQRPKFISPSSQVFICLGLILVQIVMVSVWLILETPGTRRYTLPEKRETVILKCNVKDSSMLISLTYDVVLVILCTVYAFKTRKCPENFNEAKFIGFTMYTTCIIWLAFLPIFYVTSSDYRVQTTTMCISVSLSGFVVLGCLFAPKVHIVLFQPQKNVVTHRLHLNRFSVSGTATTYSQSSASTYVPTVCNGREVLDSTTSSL

For the compound `O=C(Nc1cccc(Cl)c1)c1ccccn1`, the fold shift was 0.897 (inactive). For the same compound, the max response (measured here: glutamate max response with compound, stronger effect = higher value) is 98.7%.
